Experimental data reported in the supplement of paper PMC10307832.

Key:
Assay in all cases: relative viability (nuclei count vs DMSO), 5 days (fraction); higher = more cells survive
FG-4592 + Crizotinib = compound: Cc1nc(C(=O)NCC(=O)O)c(O)c2ccc(Oc3ccccc3)cc12 [FG-4592] + C[C@@H](Oc1cc(-c2cnn(C3CCNCC3)c2)cnc1N)c1c(Cl)ccc(F)c1Cl [Crizotinib] (partner 1 µM)
Procedure, shortened: (§1)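 Relative viability was taken as the ratio of nuclei in treated wells to nuclei in vehicle wells. Lung cancer cell lines in 1536-well plates received compounds by pin tool one day after seeding, either one drug alone or a fixed anchor-drug dose plus five library-drug doses (not always all listed) in √10 steps. Nuclei were counted on 4× images after 5 days of treatment, and values are medians of duplicate plates.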

FG-4592 + Foretinib = compound: Cc1nc(C(=O)NCC(=O)O)c(O)c2ccc(Oc3ccccc3)cc12 [FG-4592] + COc1cc2c(Oc3ccc(NC(=O)C4(C(=O)Nc5ccc(F)cc5)CC4)cc3F)ccnc2cc1OCCCN1CCOCC1 [Foretinib] (partner 0.25 µM)
Procedure, shortened: as §1

IU1-47 + Dasatinib = compound: CC1=CC(=C(N1C2=CC=C(C=C2)Cl)C)C(=O)CN3CCCCC3 [IU1-47] + Cc1nc(Nc2ncc(C(=O)Nc3c(C)cccc3Cl)s2)cc(N2CCN(CCO)CC2)n1 [Dasatinib] (partner 0.075 µM)
Procedure, shortened: as §1

IU1-47 + Alpelisib = compound: CC1=CC(=C(N1C2=CC=C(C=C2)Cl)C)C(=O)CN3CCCCC3 [IU1-47] + Cc1nc(NC(=O)N2CCC[C@H]2C(N)=O)sc1-c1ccnc(C(C)(C)C(F)(F)F)c1 [Alpelisib] (partner 2 µM)
Procedure, shortened: as §1

Cell Line | relative viability (FG-4592 + Crizotinib; first compound 0.08 µM) | relative viability (FG-4592 + Crizotinib; first compound 0.253 µM) | relative viability (FG-4592 + Crizotinib; first compound 0.8 µM) | relative viability (FG-4592 + Crizotinib; first compound 2.53 µM) | relative viability (FG-4592 + Crizotinib; first compound 8 µM) | relative viability (FG-4592 + Foretinib; first compound 0.08 µM) | relative viability (FG-4592 + Foretinib; first compound 0.253 µM) | relative viability (FG-4592 + Foretinib; first compound 2.53 µM) | relative viability (FG-4592 + Foretinib; first compound 8 µM) | relative viability (IU1-47 + Dasatinib; first compound 0.08 µM) | relative viability (IU1-47 + Dasatinib; first compound 0.253 µM) | relative viability (IU1-47 + Dasatinib; first compound 0.8 µM) | relative viability (IU1-47 + Dasatinib; first compound 8 µM) | relative viability (IU1-47 + Alpelisib; first compound 0.08 µM) | relative viability (IU1-47 + Alpelisib; first compound 0.253 µM) | relative viability (IU1-47 + Alpelisib; first compound 0.8 µM) | relative viability (IU1-47 + Alpelisib; first compound 8 µM) | relative viability (FG-4592 + Foretinib; first compound 0.8 µM) | relative viability (IU1-47 + Alpelisib; first compound 2.53 µM) | relative viability (IU1-47 + Dasatinib; first compound 2.53 µM)
201T | 1 | 1.01 | 1.05 | 1.02 | 0.974 | 1.11 | 1.04 | 1.15 | 1.07 | 0.542 | 0.604 | 0.622 | 0.587 | 1.08 | 1.04 | 0.938 | 1.04 |  |  | 
A549 | 0.631 | 0.736 | 0.87 | 0.831 | 0.826 | 1.01 | 0.898 | 0.991 | 0.866 |  |  |  |  | 0.795 | 0.767 | 0.751 | 0.642 | 1.03 | 0.936 | 
A-427 | 0.801 | 0.899 | 0.923 | 0.933 | 1.01 | 0.98 | 1.11 | 0.98 | 1.18 | 0.851 | 0.656 | 0.728 | 0.642 | 1.09 | 1.08 | 1.14 | 1.04 | 1.03 |  | 
ABC-1 | 1.28 |  | 1.64 | 1.18 | 1.13 | 0.938 | 0.929 | 1.03 | 0.76 | 0.696 | 0.603 | 0.615 | 0.542 | 1.12 | 1.3 | 0.977 | 1.1 | 1.03 |  | 
BEN | 0.729 | 0.745 | 0.743 | 0.803 | 0.594 | 0.522 | 0.597 | 0.764 | 0.464 | 0.296 | 0.358 | 0.394 | 0.304 | 1.06 | 1.13 | 1.24 | 0.834 | 0.607 | 0.973 | 
CAL-12T | 0.664 | 0.62 | 0.753 | 0.677 | 0.585 | 1.05 | 0.746 | 1.02 | 1.01 | 0.413 | 0.388 | 0.436 | 0.344 | 1.31 | 1.39 | 1.47 | 0.823 | 1.06 | 1.18 | 0.263
COR-L23 | 0.574 | 0.571 | 0.833 | 0.679 | 0.638 | 0.856 | 0.832 | 0.982 | 0.991 | 0.517 | 0.504 | 0.585 | 0.551 | 0.686 | 0.947 | 0.869 | 0.975 | 1.03 | 0.951 | 0.537
COR-L 105 | 0.785 | 0.578 | 0.77 | 0.898 | 0.723 | 0.817 | 1.06 | 0.96 | 0.718 | 0.307 | 0.303 | 0.332 | 0.307 | 1.29 | 1.06 | 1.11 | 0.783 | 1.2 | 1.16 | 0.248
Calu-6 | 0.753 | 0.811 | 0.855 | 0.832 | 0.707 | 0.907 | 0.887 | 0.924 | 0.758 |  |  |  |  | 0.907 | 1.01 | 0.989 | 1.25 | 0.966 | 0.985 | 
